Data taken from the NIST ThermoML archive (doi:10.1021/je9006629).

Assays:
[1] = refractive index (Na D-line) (dimensionless); xn = mol fraction of the nth substance listed; settings: 293.15 K, 101 kPa, Liquid, Standard Abbe refractometry
[2] = Liquid; for Normal boiling temperature: Distillation

CCCCO [butan-1-ol] + CCCCCCC
[1]
Settings | refractive index
x1 = 0.1121 | 1.3889
x1 = 0.1897 | 1.3898
x1 = 0.2845 | 1.3909
x1 = 0.3707 | 1.3919
x1 = 0.4655 | 1.393
x1 = 0.5 | 1.3934
x1 = 0.5862 | 1.3944
x1 = 0.681 | 1.3955
x1 = 0.7586 | 1.3964
x1 = 0.8276 | 1.3972
x1 = 0.9224 | 1.3983
x1 = 1 | 1.3992

CCCCO [butan-1-ol]
[2]
Settings | vapor or sublimation pressure [kPa]
356.35 K | 25.3
359.45 K | 29.3
362.95 K | 33.5
368.6 K | 42.8
373.45 K | 52.5
373.85 K | 53.3
377.3 K | 61.2
381.9 K | 72.8
386.05 K | 84.9
387.75 K | 91.3
391.95 K | 105.3
395.8 K | 120.1

Settings | Normal boiling temperature [°C]
[2] | 117.80

CCCCCO [pentan-1-ol]
[2]
Settings | vapor or sublimation pressure [kPa]
379.35 K | 31.2
382.4 K | 35.3
385.65 K | 40
390.75 K | 49.2
393.2 K | 53.3
394.7 K | 56.9
400.05 K | 69.3
404.6 K | 81.3
408.15 K | 91.3
409 K | 94.5
411.35 K | 101.9
414.65 K | 113.3

Settings | Normal boiling temperature [°C]
[2] | 138.0

CCCCCCC [heptane] + CCCCCO
Settings | refractive index
[1], x2 = 0 | 1.3876

CCCCCCC [heptane]
[2]
Settings | vapor or sublimation pressure [kPa]
332.9 K | 27.1
335.2 K | 29.9
336.85 K | 32.3
340.55 K | 36.9
343.75 K | 41.3
348.55 K | 48.9
351.45 K | 53.3
351.5 K | 53.3
352.35 K | 55.3
357.25 K | 65.3
363.15 K | 78.7
368.45 K | 91.3
368.55 K | 92.7
371.35 K | 100.8
374 K | 108.8

Settings | Normal boiling temperature [°C]
[2] | 98.50

CCCCCCC [heptane] + CCCCO
Settings | refractive index
[1], x2 = 0 | 1.3876

CCCCCO [pentan-1-ol] + CCCCCCC
[1]
Settings | refractive index
x1 = 0.0755 | 1.3893
x1 = 0.1601 | 1.3912
x1 = 0.2844 | 1.394
x1 = 0.3511 | 1.3955
x1 = 0.4622 | 1.398
x1 = 0.5821 | 1.4007
x1 = 0.6845 | 1.403
x1 = 0.7732 | 1.4051
x1 = 0.8978 | 1.4078
x1 = 1 | 1.4101
